Patent US20120219500A1, “DIAGNOSTIC AGENT FOR INFECTIOUS DISEASES” (FUJIFILM RI PHARMA CO., LTD., priority 2009, published 2012)
Where two headings read alike, the source gives them in different places.

Columns and labels:
[1] = system: Bacteroides fragilis (ATCC25285); assay: in vitro uptake of nitroimidazole derivative under anaerobic environment (absorbance of supernatant); type: cell-based; details: 37° C.
E.coli (ATCC25922) [2] = assay: as above; type: cell-based; details: 100 μM metronidazole, 37° C., rate of uptake per 10^8 CFU (FIG. 1)
[3] = rat subcutaneous infection model, non-infected skin site; type: in vivo; details: SD rat, i.v. 6.5 hours before blood collection
Procedure: An in vivo assay was performed using a rat subcutaneous infection model. As the nitroimidazole derivative, Compound 1 or Compound 2 was used. As the microorganism, two strains of Bacteroides fragilis (ATCC25285, NCTC10581), which is susceptible to metronidazole, or E.coli (ATCC25922), which is not susceptible to metronidazole, was used. A 6-week-old male SD rat was administered with 5×10^9 cfu/0.1 ml bacteria suspended in physiological saline subcutaneously into the left thigh, and then served for evaluation four days later. Approximately 0.74 MBq of Compound 1 or Compound 2 was administered via the vena jugularis externa, and three hours later, blood was collected and tissues were excised. Also, for evaluation of inflammation in the infection model, approximately 0.15 MBq of [^67Ga]gallium citrate (FUJIFILM RI Pharma Co., Ltd.), which is a radioactive diagnostic agent for inflammation, was administered via the vena jugularis externa 6.5 hours before blood collection. […] Radioactivity (cpm) of each of ^67Ga and ^125I was measured in blood, in the infected skin site, and in the non-infection site on the skin. Radioactivity of ^125I was measured after attenuating the radioactivity of ^67Ga. The amount accumulated in each tissue and % ID/g (the ratio of radioactivity per tissue weight relative to the radioactivity administered) were calculated.

[4] = system: Bacteroides fragilis (ATCC25285, NCTC10581); assay: rat subcutaneous infection model, infected skin site; type: in vivo; details: SD rat, i.v. 6.5 hours before blood collection
Procedure: (§1) An in vivo assay was performed using a rat subcutaneous infection model. As the nitroimidazole derivative, Compound 1 or Compound 2 was used. As the microorganism, two strains of Bacteroides fragilis (ATCC25285, NCTC10581), which is susceptible to metronidazole, or E.coli (ATCC25922), which is not susceptible to metronidazole, was used. A 6-week-old male SD rat was administered with 5×10^9 cfu/0.1 ml bacteria suspended in physiological saline subcutaneously into the left thigh, and then served for evaluation four days later. Approximately 0.74 MBq of Compound 1 or Compound 2 was administered via the vena jugularis externa, and three hours later, blood was collected and tissues were excised. Also, for evaluation of inflammation in the infection model, approximately 0.15 MBq of [^67Ga]gallium citrate (FUJIFILM RI Pharma Co., Ltd.), which is a radioactive diagnostic agent for inflammation, was administered via the vena jugularis externa 6.5 hours before blood collection. The viable bacteria in the infected tissue was confirmed by smearing a part of the infected skin tissue on a medium and culturing it. Radioactivity (cpm) of each of ^67Ga and ^125I was measured in blood, in the infected skin site, and in the non-infection site on the skin. Radioactivity of ^125I was measured after attenuating the radioactivity of ^67Ga. The amount accumulated in each tissue and % ID/g (the ratio of radioactivity per tissue weight relative to the radioactivity administered) were calculated.

E.coli (ATCC25922) [5] = assay: as above; type: in vivo; details: SD rat, i.v. 6.5 hours before blood collection
Procedure: as §1

[6] = type: in vivo
Bacteroides fragilis = assay: in vitro uptake of radionuclide-labeled nitroimidazole derivatives (gamma counter); type: cell-based; details: for uptake by obligate anaerobes compared with facultative anaerobes: 26 to 37 KBq radiolabeled derivative, anaerobic, 37° C., rate of uptake per 10^8 CFU (FIGS. 3-6)
[7] = system: attenuated Mycobacterium bovis (BCG, ATCC35734); type: cell-based; details: anaerobic, 37° C.
[8] = approx. 0.74 MBq i.v., three hours later

## Cc1ncc([N+](=O)[O-])n1CCO [Metronidazole, metronidazole]
[1]; 100 μM metronidazole, rate of uptake per 10^8 CFU (FIG. 1)
  uptake by the obligate anaerobe Bacteroides fragilis: taken up in a large amount
E.coli (ATCC25922) [2]
  uptake by the facultative anaerobe E.coli: taken up in little amount

## O=C([O-])CC(O)(CC(=O)[O-])C(=O)[O-].[67Ga+3] [[^67Ga]gallium citrate]
[3]
  amount accumulated in the non-infected skin site/blood: 0.41±0.06
[4]; Bacteroides fragilis (ATCC25285)
  amount accumulated in the infected skin site/blood: 1.75 ±0.2
[4]; Bacteroides fragilis (NCTC10581)
  amount accumulated in the infected skin site/blood: 1.89±0.4
E.coli (ATCC25922) [5]
  amount accumulated in the infected skin site/blood: 1.73±0.7
[6]; rat, in vivo, iv
  amount accumulated in the inflammatory skin site/blood: 1.61±0.16

## [^67Ga] Ga-DOTA-(metronidazole)2 [Compound 3]
Bacteroides fragilis
  uptake by obligate anaerobes compared with facultative anaerobes: taken up in a greater amount by obligate anaerobes than by facultative anaerobes
Bacteroides fragilis; 37° C. for 120 minutes, 0.43×10^8 to 6.75×10^8 CFU/mL viable Bacteroides fragilis (FIG. 7)
  rate of uptake versus number of viable obligate anaerobes: increased in a manner correlated with the number of viable obligate anaerobes

## fluorine-18-labeled fluoromisonidazole [[^18F]FMISO]
Bacteroides fragilis
  uptake by obligate anaerobes compared with facultative anaerobes: taken up in a greater amount by obligate anaerobes than by facultative anaerobes

## O=C(NCCn1ccnc1[N+](=O)[O-])c1cccc(I)c1 [Compound 2, N1-[2-(2-nitro-1H-1-imidazolyl)ethyl]-3-iodobenzamide]
[7]; Compound 2 0.1 mM, rate of uptake per 10^7 CFU (FIG. 9)
  uptake by BCG compared with E.coli: clearly taken up in a greater amount by nitroimidazole derivative susceptible BCG than by non-nitroimidazole derivative susceptible E.coli
Bacteroides fragilis
  uptake by obligate anaerobes compared with facultative anaerobes: taken up in a greater amount by obligate anaerobes than by facultative anaerobes
[6]; [8]
  amount accumulated in the inflammatory skin site/blood: 0.73±0.11

## Cc1ncc([N+](=O)[O-])n1CCNC(=O)c1cccc(I)c1 [Compound 1, [^125I]N1-[2-(2-methyl-5-nitro-1H-1-imidazolyl)ethyl]-3-iodobenzamide]
Bacteroides fragilis
  uptake by obligate anaerobes compared with facultative anaerobes: taken up in a greater amount by obligate anaerobes than by facultative anaerobes
[6]; [8]
  amount accumulated in the inflammatory skin site/blood: 0.85±0.25

## O=[N+]([O-])c1nccn1CC(O)CF (centres unmarked) [[^19F]FMISO, fluoromisonidazole]
[7]; [^19F]FMISO 0.09 mM, E.coli data from Example 1 (FIG. 10)
  uptake by acid-fast bacteria compared with E.coli: taken up in a greater amount by nitroimidazole derivative susceptible Mycobacterium tuberculosis in the resting stage of division than by nitroimidazole derivative non-susceptible E.coli
[1]; 70 μM [^19F]FMISO, B.fragilis vs E.coli (FIG. 2)
  uptake by obligate anaerobes compared with facultative anaerobes: taken up in a greater amount by obligate anaerobes than by facultative anaerobes
